The values below come from patent US10077237B2 (Sanofi, priority 2013, dated 2018).

The assay has as its target T1, recombinant human AMPK complex, containing α2β1γ2 (Homo sapiens, UniProt P54646+Q9Y478).
T1 construct: hsAMPKα2-552-His, hsAMPKβ1-2-270 and hsAMPKγ-2-569 respectively; hsAMPKβ1-2-270; hsAMPKγ-2-569; His (C); made in house; host or cells: Spodoptera frugiperda Sf21 (baculovirus)
The experiment in a line: AMPK in vitro activation assay (HTRF). It counts as biochemical. As to conditions: for EC50: HTRF, recombinant human α2β1γ2 AMPK, 200 μM ATP, biotinylated ACC-CREBp peptide, repeat determinations on separate lines; for Emax: potentiation of AMPK activity as percent over the basal signal (without compound). Put shortly: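 HTRF phosphorylation read-out (Eu-cryptate anti-pS133-CREB, streptavidin-XL665) after a 45 min, 37° C kinase step. This step was initiated by a solution with 200 μM ATP and 2 or 0.08 μM biotinylated ACC-CREBp peptide. Beforehand, compound sat 30 min at room temperature with baculovirus/Sf21 α2β1γ2 in pH 7.0 HEPES buffer; EC50 derived from activation over basal.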
A general note: In TR-FRET formats the signal depends on donor and acceptor labels being close together.

A word on the EC50: it is the concentration at which the effect is half-maximal. By Emax is commonly meant the size of the effect at its maximum, as opposed to the concentration needed.

“And” between values parts separate entries of the source, which are not always exact repeats. Identical values can stand only once. Counter-ions that a name gives are not always drawn.

T1 sequence (P54646 2-552): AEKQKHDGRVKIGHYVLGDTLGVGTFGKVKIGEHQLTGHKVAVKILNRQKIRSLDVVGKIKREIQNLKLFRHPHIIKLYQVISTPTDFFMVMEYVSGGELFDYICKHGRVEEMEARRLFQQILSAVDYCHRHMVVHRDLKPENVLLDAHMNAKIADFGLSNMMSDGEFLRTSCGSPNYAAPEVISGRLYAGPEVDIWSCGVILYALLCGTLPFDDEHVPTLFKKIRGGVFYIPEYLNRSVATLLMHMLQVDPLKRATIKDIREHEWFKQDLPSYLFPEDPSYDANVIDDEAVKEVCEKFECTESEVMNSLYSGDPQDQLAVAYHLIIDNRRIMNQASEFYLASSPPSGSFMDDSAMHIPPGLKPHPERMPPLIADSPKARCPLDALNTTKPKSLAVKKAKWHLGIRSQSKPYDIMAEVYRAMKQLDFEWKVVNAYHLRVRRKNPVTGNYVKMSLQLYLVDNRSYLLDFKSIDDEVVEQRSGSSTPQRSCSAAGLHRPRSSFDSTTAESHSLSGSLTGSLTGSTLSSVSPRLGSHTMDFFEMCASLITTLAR
T1 sequence (Q9Y478 2-270): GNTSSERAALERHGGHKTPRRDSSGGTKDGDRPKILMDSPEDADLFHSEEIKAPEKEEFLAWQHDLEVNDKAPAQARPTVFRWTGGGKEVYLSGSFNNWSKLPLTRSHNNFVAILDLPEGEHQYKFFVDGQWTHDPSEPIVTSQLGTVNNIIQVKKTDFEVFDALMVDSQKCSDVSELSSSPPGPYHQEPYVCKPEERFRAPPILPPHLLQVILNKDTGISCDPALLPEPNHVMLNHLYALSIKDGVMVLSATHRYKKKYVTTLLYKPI
T1 sequence (Q9UGJ0 2-569 partner limits assumed): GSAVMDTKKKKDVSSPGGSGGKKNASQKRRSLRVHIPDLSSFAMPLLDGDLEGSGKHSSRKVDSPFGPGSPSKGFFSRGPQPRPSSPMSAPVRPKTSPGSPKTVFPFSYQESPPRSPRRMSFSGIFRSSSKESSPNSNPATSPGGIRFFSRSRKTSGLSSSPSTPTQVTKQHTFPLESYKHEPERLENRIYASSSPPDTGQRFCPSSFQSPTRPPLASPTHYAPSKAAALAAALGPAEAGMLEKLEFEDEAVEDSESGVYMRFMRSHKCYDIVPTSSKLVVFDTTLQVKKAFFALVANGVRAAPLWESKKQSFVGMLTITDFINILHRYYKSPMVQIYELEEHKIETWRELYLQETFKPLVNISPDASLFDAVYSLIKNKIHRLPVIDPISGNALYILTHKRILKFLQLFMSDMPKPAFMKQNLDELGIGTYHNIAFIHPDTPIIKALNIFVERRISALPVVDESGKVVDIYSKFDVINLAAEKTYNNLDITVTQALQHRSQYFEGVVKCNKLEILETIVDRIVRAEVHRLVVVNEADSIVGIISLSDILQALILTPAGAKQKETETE

As for `Cc1cc(C(O)=C2C(=O)Nc3cc(Cl)c(-c4ccc(OCCCO)cc4)cc32)on1` [Compound 91, 6-chloro-3-[hydroxy-(3-methylisoxazol-5-yl)methylene]-5-[4-(3-hydroxypropoxy)phenyl]indolin-2-one], the EC50 was 4 nM and the Emax was 185%.

`COc1cc(C(O)=C2C(=O)Nc3cc(F)c(-c4ccc(-c5cccc(OC)c5O)cc4)c(F)c32)on1` [Compound 92, 4,6-difluoro-3-[hydroxy-(3-methoxyisoxazol-5-yl)methylene]-5-[4-(2-hydroxy-3-methoxy-phenyl)phenyl]indolin-2-one]: the EC50 stood at 0.3 nM and the Emax was determined as 172%.

With `CN1CCN(c2cccc(C(O)=C3C(=O)Nc4cc(Cl)c(-c5ccc(N6CCOCC6)cc5)cc43)c2)CC1` [Compound 93, 6-chloro-3-[hydroxy-[3-(4-methylpiperazin-1-yl)phenyl]methylene]-5-(4-morpholinophenyl)indolin-2-one hydrochloride], the EC50 amounted to 58 nM and the Emax worked out at 186%.

Regarding `O=C1Nc2cc(Cl)c(-c3ccc(N4CCOCC4)cc3)cc2C1=C(O)c1cccc(N2CCOCC2)c1` [Compound 94, 6-chloro-3-[hydroxy-(3-morpholinophenyl)methylene]-5-(4-morpholinophenyl)indolin-2-one], the EC50 came to 14 nM and the Emax came to 150%.

Turning to `O=C1Nc2cc(Cl)c(-c3ccc(N4CCOCC4)cc3)cc2C1=C(O)c1ccc(OC(F)(F)F)c(F)c1` [Compound 95, 6-chloro-3-[[3-fluoro-4-(trifluoromethoxy)phenyl]-hydroxy-methylene]-5-(4-morpholinophenyl)indolin-2-one], the EC50 amounted to 396 nM and the Emax was 159%.

Take `COc1cc(C(O)=C2C(=O)Nc3cc(Cl)c(-c4ccc(C5(CO)CC5)c(F)c4)cc32)on1` [Compound 96, 6-chloro-5-[3-fluoro-4-[1-(hydroxymethyl)cyclopropyl]phenyl]-3-[hydroxy-(3-methoxyisoxazol-5-yl)methylene]indolin-2-one]: the EC50 is 0.3 nM and 0.2 nM.

With `COc1c(F)cc(C(O)=C2C(=O)Nc3cc(Cl)c(-c4ccc(N5CCOCC5)cc4)cc32)cc1Cl` [Compound 97, 6-chloro-3-[(3-chloro-5-fluoro-4-methoxy-phenyl)hydroxy-methylene]-5-(4-morpholinophenyl)indolin-2-one], the 50% effective concentration (EC50) was found to be 41 nM and the Emax amounted to 185%.

For `COc1ccc(C(O)=C2C(=O)Nc3cc(Cl)c(-c4ccc(N5CCOCC5)cc4)cc32)c(F)c1F` [Compound 98, 6-chloro-3-[(2,3-difluoro-4-methoxy-phenyl)hydroxy-methylene]-5-(4-morpholinophenyl)indolin-2-one], the EC50 was determined as 2 nM and the Emax is 191%.

As for `COc1cc(C(O)=C2C(=O)Nc3cc(Cl)c(-c4ccc(OCCCN5CCOCC5)cc4)cc32)on1` [Compound 99, 6-chloro-3-[hydroxy-(3-methoxyisoxazol-5-yl)methylene]-5-[4-(3-morpholinopropoxy)phenyl]indolin-2-one], the EC50 stood at 5 nM and the Emax was 187%.

In the case of `COc1cc(C(O)=C2C(=O)Nc3cc(Cl)c(-c4ccc(OCc5cccnc5)cc4)cc32)on1` [Compound 100, 6-chloro-3-[hydroxy-(3-methoxyisoxazol-5-yl)methylene]-5-[4-(3-pyridylmethoxy)phenyl]indolin-2-one], the EC50 worked out at 36 nM and the maximal response (Emax) amounted to 159%.

As for `Cc1cc(C(O)=C2C(=O)Nc3cc(Cl)c(-c4ccc(OCc5ncccn5)cc4)cc32)on1` [Compound 101, 6-chloro-3-[hydroxy-(3-methylisoxazol-5-yl)methylene]-5-[4-(pyrimidin-2-ylmethoxy)phenyl]indolin-2-one], the EC50 stood at 63 nM and the maximum response (Emax) stood at 159%.

For the molecule `O=C1Nc2cc(Cl)c(-c3ccc(N4CCOCC4)cc3)cc2C1=C(O)c1cc(O)no1` [Compound 102, 6-chloro-3-[hydroxy-(3-hydroxyisoxazol-5-yl)methylene]-5-(4-morpholinophenyl)indolin-2-one], the EC50 amounted to 2 nM and the maximal response (Emax) turned out to be 122%.

Turning to `COCCOc1ccc(-c2cc3c(cc2Cl)NC(=O)C3=C(O)c2cc(C)no2)cc1` [Compound 103, 6-chloro-3-[hydroxy-(3-methylisoxazol-5-yl)methylene]-5-[4-(2-methoxyethoxy)phenyl]indolin-2-one], the EC50 stood at 16 nM and the Emax stood at 114%.

For `CC(=O)NCCOc1ccc(-c2cc3c(cc2Cl)NC(=O)C3=C(O)c2cc(C)no2)cc1` [Compound 104, N-[2-[4-[6-chloro-3-[hydroxy-(3-methylisoxazol-5-yl)methylene]-2-oxo-indolin-5-yl]phenoxy]ethyl]acetamide], the EC50 turned out to be 15 nM and the Emax worked out at 107%.

`CCOc1cc(C(O)=C2C(=O)Nc3cc(Cl)c(-c4ccc(-c5cccc(OC)c5O)cc4)cc32)on1` [Compound 105, 6-chloro-3-[(3-ethoxyisoxazol-5-yl)hydroxy-methylene]-5-[4-(2-hydroxy-3-methoxy-phenyl)phenyl]indolin-2-one]: the EC50 turned out to be 0.3 nM and the Emax came to 74%.

With `O=C1Nc2cc(Cl)c(-c3ccc(C4(CO)CC4)cc3)cc2C1=C(O)c1cc(C2CC2)no1` [Compound 106, 6-chloro-3-[(3-cyclopropylisoxazol-5-yl)hydroxy-methylene]-5-[4-[1-(hydroxymethyl)cyclopropyl]phenyl]indolin-2-one], the EC50 was 0.1 nM and the Emax was determined as 155%.

For the molecule `Cc1[nH]c(=O)sc1C(O)=C1C(=O)Nc2cc(Cl)c(-c3ccc(N4CCOCC4)cc3)cc21` [Compound 107, 5-[-[6-chloro-5-(4-morpholinophenyl)-2-oxo-indolin-3-ylidene]-hydroxy-methyl]-4-methyl-3H-thiazol-2-one], the EC50 turned out to be 36 nM and the Emax came out at 104%.

Take `COc1cc(F)c(C(O)=C2C(=O)Nc3cc(Cl)c(-c4ccc(N5CCOCC5)cc4)cc32)cc1F` [Compound 108, 6-chloro-3-[(2,5-difluoro-4-methoxy-phenyl)hydroxy-methylene]-5-(4-morpholinophenyl)indolin-2-one]: the EC50 is 6 nM and the Emax turned out to be 141%.

Take `COc1cccc(-c2ccc(-c3cc4c(cc3Cl)NC(=O)C4=C(O)c3cc(OC(C)C)no3)cc2)c1O` [Compound 109, 6-chloro-3-[hydroxy-(3-isopropoxyisoxazol-5-yl)methylene]-5-[4-(2-hydroxy-3-methoxy-phenyl)phenyl]indolin-2-one]: the EC50 was 0.6 nM and the Emax is 165%.

As for `COc1cc(C(O)=C2C(=O)Nc3cc(Cl)c(-c4ccc(C5(OC)CCC5)cc4)cc32)on1` [Compound 110, 6-chloro-3-[hydroxy-(3-methoxyisoxazol-5-yl)methylene]-5-[4-(1-methoxycyclobutyl)phenyl]indolin-2-one], the EC50 turned out to be 6 nM and the Emax was found to be 131%.

With `COc1cc(C(O)=C2C(=O)Nc3cc(Cl)c(-c4ccc(C5(CO)CC5)cc4F)cc32)on1` [Compound 111, 6-chloro-5-[2-fluoro-4-[1-(hydroxymethyl)cyclopropyl]phenyl]-3-[hydroxy-(3-methoxyisoxazol-5-yl)methylene]indolin-2-one], the EC50 is 1 nM and the Emax worked out at 175%.

As to `CC(C)(C)c1cc(C(O)=C2C(=O)Nc3cc(Cl)c(-c4ccc(N5CCOCC5)cc4)cc32)on1` [Compound 112, 3-[(3-tert-butylisoxazol-5-yl)-hydroxy-methylene]6-chloro-5-(4-morpholinophenyl)indolin-2-one], the EC50 turned out to be 13 nM and the Emax came out at 197%.

For the molecule `O=C1Nc2cc(Cl)c(-c3ccc(C4(CO)CC4)cc3F)cc2C1=C(O)c1cc(C2CC2)no1` [Compound 113, 6-chloro-3-[(3-cyclopropylisoxazol-5-yl)hydroxy-methylene]-5-[2-fluoro-4-[1-(hydroxymethyl)cyclopropyl]phenyl]indolin-2-one], the EC50 came out at 0.6 nM and the Emax came to 126%.

Take `O=C1Nc2cc(Cl)c(-c3ccc(C4(CO)CC4)cc3)cc2C1=C(O)c1cccs1` [Compound 114, 6-chloro-5-[4-[1-(hydroxymethyl)cyclopropyl]phenyl]-3-[hydroxy(2-thienyl)methylene]indolin-2-one]: the 50% effective concentration (EC50) turned out to be 4 nM and the Emax amounted to 143%.

Consider `Cc1cc(C(O)=C2C(=O)Nc3cc(Cl)c(-c4ccc(OCC5CCO5)cc4)cc32)on1` (stereo not shown) [Compound 115, 6-chloro-3-[hydroxy-(3-methylisoxazol-5-yl)methylene]-5-[4-(oxetan-2-ylmethoxy)phenyl]indolin-2-one], for which the EC50 turned out to be 30 nM and the Emax was found to be 149%.

Take `COc1ccc(C(O)=C2C(=O)Nc3cc(Cl)c(-c4ccc(C5(CO)CC5)cc4)cc32)cn1` [Compound 116, 6-chloro-3-[hydroxy-(6-methoxy-3-pyridyl)methylene]-5-[4-[1-(hydroxymethyl)cyclopropyl]phenyl]indolin-2-one hydrochloride]: the EC50 was 0.3 nM and 0.8 nM.

`COc1cccc(-c2ccc(-c3cc4c(cc3Cl)NC(=O)C4=C(O)c3cc(C4CC4)no3)cc2)c1O` [Compound 117, 6-chloro-3-[(3-cyclopropylisoxazol-5-yl)hydroxy-methylene]-5-[4-(2-hydroxy-3-methoxy-phenyl)phenyl]indolin-2-one]: the EC50 worked out at 0.1 nM and the Emax came to 129%.
